In PubChem BioAssay (NCI):
Values joined by “and” are separate entries in the source; they are usually repeats but may differ in a detail not shown here. Identical values can stand only once.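 Step 1: Grow cells in 96-well plates. Step 2: Expose to compound for 48 hours at 5 concentrations. Step 3: Interpolate endpoints linearly; if unreached, use highest concentration. Abbreviation: GI50, concentration required for 50% inhibition of growth. TGI: total growth inhibition.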

Key:
Assay in all cases: NCI anticancer screen, dose series, 48 h
BT-549 breast = system: BT-549 breast
CCRF-CEM leukemia = system: CCRF-CEM leukemia
HCC-2998 colon = system: HCC-2998 colon
K-562 leukemia = system: K-562 leukemia
MALME-3M melanoma = system: MALME-3M melanoma
SF-268 CNS = system: SF-268 CNS
SF-539 CNS = system: SF-539 CNS
SNB-19 CNS = system: SNB-19 CNS
SNB-75 CNS = system: SNB-75 CNS
T-47D breast = system: T-47D breast

Compound	TGI (BT-549 breast)	TGI (CCRF-CEM leukemia)	TGI (HCC-2998 colon)	TGI (K-562 leukemia)	TGI (MALME-3M melanoma)	TGI (SF-268 CNS)	TGI (SF-539 CNS)	TGI (SNB-19 CNS)	TGI (SNB-75 CNS)	TGI (T-47D breast)	GI50 (CCRF-CEM leukemia)	GI50 (K-562 leukemia)	GI50 (BT-549 breast)	GI50 (HCC-2998 colon)	GI50 (MALME-3M melanoma)	GI50 (SF-268 CNS)	GI50 (SF-539 CNS)	GI50 (SNB-19 CNS)	GI50 (SNB-75 CNS)	GI50 (T-47D breast)
Cn1c2ccc3cc2c(=S)c2cc(ccc21)OCCOCCOCCOCCOCCOCCO3	> 10 µM	> 10 µM	> 10 µM	> 10 µM	> 10 µM	> 10 µM	> 10 µM	> 10 µM	> 10 µM	> 10 µM										
CC1=C2C(=C[C@@](C)(CO)[C@@H]2O)C(=O)[C@](C)(O)C12CC2	0.0518 µM		0.0302 µM and 0.018 µM		0.0243 µM	0.0192 µM and 0.106 µM	0.0181 µM and 0.0175 µM	0.0921 µM	0.0296 µM and 0.0123 µM	0.0545 µM	0.342 µM	0.0222 µM								
Cc1nnc(NC(=O)c2nc(S(=O)(=O)Cc3ccc(F)cc3)ncc2Cl)s1	5.25 µM	3.65 µM	29.4 µM	4.52 µM	3.48 µM	16.8 µM	15.4 µM	35.1 µM	17.6 µM	14.1 µM	1.52 µM	1.77 µM	2.3 µM	13.4 µM	1.8 µM	3.88 µM	4.27 µM	15.6 µM	3.25 µM	2.45 µM
COc1ccc(/C=N/NC(=O)c2cccc3cc[nH]c23)cc1O	> 78.8 µM	> 28.5 µM	97.5 µM	> 100 µM	> 100 µM	> 100 µM	> 100 µM	> 100 µM	> 100 µM	> 100 µM	1.93 µM	2.17 µM	12.2 µM	6.96 µM	1.96 µM	4.01 µM	1.85 µM	4.07 µM	0.24 µM	5.74 µM
COc1ccc(C2[C@@H](c3ccccc3)C(=O)N2c2cc(OC)c(OC)c(OC)c2)cc1F (stereo partly specified)	0.09 µM	> 100 µM	> 100 µM	> 100 µM	> 100 µM	> 100 µM	0.0706 µM	> 100 µM	> 100 µM	> 100 µM	0.0361 µM	0.0321 µM	0.0266 µM	0.0394 µM	> 100 µM	0.0443 µM	0.0234 µM	0.0499 µM	0.0314 µM	> 100 µM
C=C1C(=O)O[C@H]2[C@H]1CC/C(COC(=O)NCc1ccc(Cn3c(=O)sn(-c4ccc(OC)cc4)c3=O)cc1)=C\CC[C@@]1(C)O[C@@H]21	16.3 µM	3.05 µM	25.5 µM		3.76 µM	9.86 µM	4.15 µM	24.6 µM	15.3 µM	4.53 µM	0.561 µM		4.37 µM	10.4 µM	1.81 µM	3.14 µM	1.96 µM	11.7 µM	3.44 µM	1.86 µM
C/C(=C\CBr)CCC(Br)C(C)(C)Br (stereo unspecified)	> 100 µM	> 100 µM	> 100 µM	> 100 µM	> 100 µM	> 100 µM	> 100 µM	> 100 µM	> 100 µM	> 100 µM										
Nc1n[nH]c2cccc(C#Cc3cccc(C(=O)Nc4ccc(CN5CCOCC5)c(C(F)(F)F)c4)c3)c12	6.03 µM	11.5 µM	13.9 µM	> 100 µM	2.69 µM	13.3 µM	3.47 µM	35.5 µM	12.8 µM	5.76 µM	2.26 µM	0.0233 µM	2.14 µM	3 µM	0.446 µM	2.72 µM	1.05 µM	3.36 µM	3.21 µM	1.18 µM
O=C(O)c1nc2nc(Cl)c(Cl)nc2[nH]1	> 100 µM	> 100 µM		> 100 µM	> 100 µM	> 100 µM	> 100 µM	> 100 µM	> 100 µM	> 100 µM										
COc1cccc(C2SC(N)=Nc3c2c(C)nn3C(=O)c2ccccc2O)c1 (stereo unspecified)	> 10 µM	> 10 µM	> 10 µM	> 10 µM	> 10 µM	> 10 µM	> 2.64 µM	> 10 µM	> 10 µM	> 10 µM										
Nc1ccccc1SC(CC(=O)c1ccccc1)c1cccc([N+](=O)[O-])c1 (stereo unspecified)	30.9 µM	50.8 µM	31.3 µM	13.6 µM	31.3 µM	31.3 µM	30.7 µM	27.4 µM	26.7 µM	36.2 µM	16 µM	3.72 µM	17 µM	17.3 µM	16.9 µM	16.3 µM	16.8 µM	14.3 µM	13.6 µM	12.1 µM
N#CC(C#N)=C/C=C(\Sc1nc2ccccc2s1)c1ccc(Cl)cc1	26.2 µM	> 100 µM	29 µM	> 24.6 µM	16.5 µM	33 µM	9.89 µM	> 41.2 µM	8.82 µM	> 33 µM	0.577 µM	1.45 µM	11.3 µM	13.8 µM	5.29 µM	14.6 µM	2.83 µM	8.12 µM	1.31 µM	
O=C1NC(=NC(CO)Cc2ccccc2)S/C1=C\c1ccc2ncccc2c1 (stereo unspecified)	> 25 µM and 11.4 µM	> 25 µM	> 25 µM	> 25 µM	> 25 µM	> 25 µM	> 25 µM and 10.1 µM	> 25 µM	> 25 µM	> 25 µM	10.6 µM and 4.89 µM	11.2 µM and 3.48 µM		13.9 µM and 8.02 µM	12 µM and 6.19 µM	20 µM and 4.36 µM	11.9 µM and 2.73 µM	> 25 µM and 4.34 µM	10.8 µM and 1.77 µM	21.1 µM and 5.26 µM
CC(C)[C@@H]1C=C2CC[C@H]3[C@](C)(CN)CCC[C@]3(C)[C@H]2CC1	35.4 µM	13.8 µM	3.03 µM	4.36 µM	19.3 µM	20.7 µM	13 µM	21.1 µM	28.8 µM	4.61 µM	3.39 µM	1.96 µM	16.5 µM	1.63 µM	3.9 µM	7.27 µM	3.44 µM	8.17 µM	14.8 µM	1.99 µM
CCN1C(=O)N(c2ccccc2)C2NC(=S)N(/N=C/C=C/c3ccccc3OC)C21 (stereo unspecified)	3.41 µM	> 38.5 µM	> 100 µM	> 100 µM	> 100 µM	> 100 µM	0.744 µM	> 52.9 µM	> 41.4 µM	> 100 µM	0.111 µM	0.0662 µM	0.112 µM	0.111 µM	0.722 µM	0.195 µM	0.199 µM	0.133 µM	0.0383 µM	4.12 µM
CN(C)c1cc(NN=C(c2ccc(O)cc2)c2ccc(O)cc2)c([N+](=O)[O-])cc1[N+](=O)[O-]	21.5 µM	17.9 µM	27.8 µM	> 100 µM	28 µM	15.9 µM	24.1 µM	22.2 µM	25 µM	17.2 µM	2.58 µM	3.61 µM	6.32 µM	13.8 µM	13.7 µM	3.88 µM	11.8 µM	9.4 µM	10.4 µM	3.34 µM
CCN(Cc1ccc(F)cc1)c1cc(Cl)c(CO)c(Cl)c1	28.3 µM	47.7 µM	28.1 µM	51.6 µM	36.1 µM	27.7 µM	30.4 µM	26 µM	25.9 µM	26.5 µM	16.8 µM	15.9 µM	13.6 µM	13.9 µM	17.8 µM	13.6 µM	16.2 µM	12.5 µM	12.8 µM	7.47 µM
CCCCCCCCCCCCC(O)c1ccc(C#CCCCCCCCCCO)o1 (stereo unspecified)	42.3 µM	51.4 µM	48.2 µM	22.6 µM		49.4 µM	36.8 µM	83.1 µM	70.1 µM	> 100 µM	23.2 µM	3.73 µM	21.7 µM	27.5 µM		23.2 µM	21.1 µM	31.7 µM	34.1 µM	44.2 µM
O=C(O)c1ccc2c(c1C(=O)O)C(=O)OC2(c1ccc(O)cc1)c1ccc(O)cc1	> 100 µM	> 100 µM		> 100 µM	> 100 µM	> 100 µM	> 100 µM	> 100 µM	> 100 µM	> 100 µM										
CCOC(=S)SCC(=O)O	> 100 µM	26.6 µM		> 100 µM	> 100 µM	> 100 µM	> 100 µM	> 100 µM	> 100 µM	> 100 µM										
CCN(C(=O)N1CCN(c2cc3c(cc2F)c(=O)c(C(=O)O)cn3C2CC2)CC1)c1nc(-c2ccc(Cl)cc2)cs1	5.61 µM	> 100 µM	> 28.6 µM	> 100 µM	5.95 µM	> 100 µM	3.74 µM	49.5 µM	9.32 µM	> 100 µM	2.45 µM	1.13 µM	1.02 µM	2.83 µM	1.38 µM	1.28 µM	1.02 µM	1.09 µM	1.37 µM	1.99 µM
COC[C@H]1Cn2cc(-c3nc(Nc4ccnn4C)ncc3C)nc2C(=O)N1Cc1ccc(F)c(F)c1	> 100 µM	> 100 µM	> 100 µM	> 100 µM		> 100 µM	> 100 µM	> 100 µM	> 100 µM	> 100 µM	29.3 µM	5.85 µM	48.9 µM	0.0673 µM		29.3 µM	27.1 µM	> 100 µM	9.59 µM	65.5 µM
O=C(CCCSc1nc(-c2ccccc2)cc(-c2ccccc2)n1)NO	17 µM	10.6 µM	6.95 µM	18.9 µM	9.71 µM	5.76 µM	7.09 µM	13.8 µM	9.55 µM	22 µM	0.368 µM	0.983 µM	2.66 µM	2.05 µM	1.95 µM	2.03 µM	1.92 µM	2.67 µM	1.68 µM	1.76 µM
Nc1ccc(C2=NNC(=O)Cc3cc4c(cc32)OCCO4)cc1Cl	> 50 µM	> 50 µM	> 50 µM		> 50 µM	> 50 µM	16.8 µM	> 50 µM	27.9 µM	> 50 µM	3.47 µM		5.99 µM	3.73 µM	4.13 µM	8.77 µM	4.15 µM	8.19 µM	2 µM	5.42 µM
CC(=O)CC(OC(C)=O)C1=CCC2C(CC1C)OC(=O)C2C (stereo unspecified)	> 100 µM	> 100 µM	> 100 µM	> 100 µM	> 100 µM	> 100 µM	> 100 µM	> 100 µM	> 100 µM	> 100 µM										
CCOC(=O)C1=C(C)N(c2ccc(F)cc2F)[C@]2(C#N)C(O)=C(Cl)C(Cl)=C(O)[C@]12C#N	> 100 µM	> 100 µM		> 100 µM	> 100 µM	> 100 µM	> 100 µM	> 100 µM	> 100 µM	> 100 µM	28.8 µM	88 µM	> 100 µM		> 100 µM	> 100 µM	> 100 µM	> 100 µM	> 100 µM	> 100 µM
Cc1ccc(-n2c3nc(=O)[nH]c(=O)c-3cc3cc([N+](=O)[O-])ccc32)cc1	27.8 µM	> 100 µM	28.6 µM	> 100 µM		54.8 µM	40.8 µM	74 µM	59.4 µM	36 µM	4.67 µM	33.4 µM	6.49 µM	14.6 µM		17.3 µM	13.9 µM	17.3 µM	16.6 µM	14.3 µM
N#Cc1c[nH]n2c(N=Nc3ccc(Cl)cc3)c(O)nc12	77.6 µM	> 100 µM		> 100 µM	> 100 µM	77.4 µM	54.1 µM	> 100 µM	> 100 µM	56 µM	31.1 µM	26.4 µM	28.5 µM		41.6 µM	20.6 µM	26.9 µM	33.8 µM	40.7 µM	10.1 µM
